Experimental data published in US10329476B2, “Non-regulated synthetic acid compositions for use as alternatives to conventional acids in the oil and gas industry” (FLUID ENERGY GROUP LTD., priority 2015, dated 2019).

Test system: human skin
Test: Dermal exposure test
Assay type: in vivo
Text: The objective of this study was to evaluate the dermal irritancy and corrosiveness of the composition of Example 2, following a single application to human skin. To assess the safety upon spillage on human skin, a few drops of the synthetic acid according to a preferred embodiment of the present invention and a control composition (MSA—70%) were applied to the skin on the back of the hand of a test individual. The hands were not covered and remained exposed to the compositions for a period of up to one hour. The exposed skin was subsequently washed with soap and visual assessment of the exposed area was done 24 hours after the start of the exposure.

Dermal exposure, skin observation (24 hrs from exposure, after washing with soap): scab formation | Dermal exposure, skin observation (back of hand, 0 hrs from exposure): immediate burning | Dermal exposure, skin observation (back of hand, ½ hrs from exposure): small blisters
SMILES: CS(=O)(=O)O [MSA (70%), Methanesulfonic acid]
Dermal exposure, skin observation (back of hand, 1 hrs from exposure): red skin irritation with large blisters
